Literature values as cited in patent publication US6521028B1, “Low hazard corrosion inhibitors and cleaning solutions using quaternary ammonium salts” (HydroChem Industrial Services, Inc., priority 1996, dated 2003).

Key:
[1] = not given; remark: listed apart in the source

COC(C)COC(C)CO (stereo not drawn) [dipropylene glycol methyl ether]
LD50 (oral rats): 5130 mg/kg

NC(N)=S [thiourea]
LD50 (oral rats): 125 mg/kg

CC(C)O [Isopropanol, isopropanol]
amount fatal to humans [1]: ≥ 100 mL
